From article PMC7016953 (Cells, 2020) come the findings set out here.

For one series, the system named is parental HEK293 cells. In words: MTT cell viability assay. In kind it is cell-based, human. The settings on record: 24 h. On the procedure: Cells were seeded in poly-L-lysine-coated 96-well plates at a density of 10,000 cells per well. After 24 h, the medium was exchanged, and compounds or the corresponding solvent were added and incubated for another 24 h. Then, the medium was removed, and a fresh medium containing 0.5 mg/mL MTT was added. After 3 h of incubation, supernatants were aspirated, and cells containing formazan crystals were lysed with 100% DMSO. Finally, absorbance of DMSO-dissolved formazan was measured at 560 and 670 nm with a plate reader (Polarstar Omega, BMG Labtech, Germany). The differences of both extinctions were calculated, and values were normalized to a solvent control (0.25% DMSO).
In general terms: Tetrazolium dyes change colour on reduction, which living cells bring about.

In another series the test system is T1, mouse TRPC3 ortholog.
T1 construct: expressed in transfected cells; host or cells: HEK293, transient
In words: Single-cell [Ca2+]i analysis, fura-2-loaded HEK293 cells transiently overexpressing mouse TRPC3. The class given is cell-based. Conditions: 50 µM, mean and S.D., n = 215 single cells; basal 311 ± 134 nM. On the procedure: The microfluorometric single-cell [Ca^2+]i analysis was performed on an inverted epifluorescence microscope (Carl Zeiss, Jena, Germany) and calibrated as described. Cells were grown on 25 mm coverslips and loaded with 4 µM fura-2/AM (AAT Bioquest, Sunnyvale, CA, U.S.A.) in HBS containing 0.2% BSA for 30 min at 37 °C. After gently rinsing the coverslips with HBS, coverslips were mounted in a bath chamber and superfused with HBS containing 0.035% BSA.

The next series deals with T2, TRPC7.
T2 construct: expressed in transfected cells
In words: Whole-cell patch-clamp recordings in HEK TRPC7-YFP cells. The class given is cell-based, human. Conditions: 100 µM artemisinin. On the procedure: (§1) The recordings of TRPC3, TRPC6, or TRPC7 membrane currents in HEK293 or PC12 cells were realized by using a Multiclamp 700B amplifier with a Digidata 1440A digitizer controlled by the PClamp 10 software (all Molecular Devices, Sunnyvale, CA, U.S.A.). Recordings were obtained at room temperature either in the whole-cell or in an outside-out configuration as indicated. Cells were seeded as described above, but at lower density, mounted in a chamber (Warner Instruments, Hamden, CT; U.S.A.), placed onto the stage of an inverted microscope, and perfused with required solution. The standard extracellular solution contained 140 mM NaCl, 5 mM CsCl, 2 mM MgCl2, 1 mM CaCl2, 10 mM HEPES, and 0.035% BSA adjusted to pH 7.4 with NaOH. The composition of standard intracellular solution was 140 mM CsCl, 1 mM MgCl2, 5 mM EGTA, and 10 mM HEPES adjusted to pH 7.25 with CsOH; the osmolarity was 295 mOsm l^−1. In outside-out measurements, the pipette solution contained 5 mM EGTA and 1.1 mM CaCl2 to achieve a calculated free Ca^2+ concentration of 100 nM.
Patch pipettes were pulled from borosilicate glass capillaries BG150F-8P (Science Products, Hofheim, Germany) with a PIP6 pipette puller (HEKA Elektronik, Lambrecht, Germany). […] In all whole-cell measurements, the series resistance was lower than 13 MΩ, and compensated by 70%. […]
For orientation: In patch-clamp work, channel activity is measured electrically.

The next series addresses T3, TRPC3 (Homo sapiens, UniProt Q13507).
T3 construct: expressed in transfected cells
T3 sequence (Q13507 1-848 isoform Q13507-3): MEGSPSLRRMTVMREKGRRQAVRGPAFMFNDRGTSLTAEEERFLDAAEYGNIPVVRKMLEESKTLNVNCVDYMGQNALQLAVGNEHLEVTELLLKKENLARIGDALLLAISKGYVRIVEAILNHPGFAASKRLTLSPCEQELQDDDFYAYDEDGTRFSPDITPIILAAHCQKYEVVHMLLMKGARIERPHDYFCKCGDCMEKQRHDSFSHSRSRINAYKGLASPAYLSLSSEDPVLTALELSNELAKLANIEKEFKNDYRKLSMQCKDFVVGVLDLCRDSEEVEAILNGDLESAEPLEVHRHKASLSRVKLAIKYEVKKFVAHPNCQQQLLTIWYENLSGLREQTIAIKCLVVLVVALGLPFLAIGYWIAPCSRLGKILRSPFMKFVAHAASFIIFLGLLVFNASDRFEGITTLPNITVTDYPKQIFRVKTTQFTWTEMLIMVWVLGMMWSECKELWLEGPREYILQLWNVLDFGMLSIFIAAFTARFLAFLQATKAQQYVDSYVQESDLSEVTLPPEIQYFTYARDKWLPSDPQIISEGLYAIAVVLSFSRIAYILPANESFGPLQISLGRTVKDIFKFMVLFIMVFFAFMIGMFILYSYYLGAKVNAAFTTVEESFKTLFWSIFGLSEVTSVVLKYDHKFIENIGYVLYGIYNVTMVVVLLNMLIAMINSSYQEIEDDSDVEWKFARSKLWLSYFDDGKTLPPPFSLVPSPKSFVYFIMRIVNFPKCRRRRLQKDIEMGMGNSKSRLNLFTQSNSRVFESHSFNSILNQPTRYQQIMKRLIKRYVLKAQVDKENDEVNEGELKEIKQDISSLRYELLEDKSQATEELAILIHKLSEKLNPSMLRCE
In words: Whole-cell patch-clamp recordings in HEK TRPC3-YFP cells. In kind it is cell-based. The settings on record: for pEC50: n = 12–27 cells. On the procedure:
as §1
Patch pipettes were pulled from borosilicate glass capillaries BG150F-8P (Science Products, Hofheim, Germany) with a PIP6 pipette puller (HEKA Elektronik, Lambrecht, Germany). […] In all whole-cell measurements, the series resistance was lower than 13 MΩ, and compensated by 70%. If the access was unstable during the experiment (increase in series resistance by more than 15% at the end of the experiment), the cell was omitted from the analysis. To record current/voltage (I/V) curves, voltage ramps (400 mV s^−1) ranging from –100 to +100 mV were applied. Currents were filtered at 3 kHz with a four-pole Bessel filter and sampled at 10 kHz.
Figure 4 Electrophysiological analysis of artemisinin-induced whole-cell currents in HEKTRPC3-YFP cells. The voltage protocol depicted in the box (duration of 0.8 s) was applied in 1 s intervals, and steady state inward and outward current densities averaged at potentials of –100 or +100 mV as well as voltage ramps (0.4 Vs^−1) were extracted from the data. (A) Current densities at +100 and –100 mV, respectively.

pEC50: −log10 of the molar value. Like-named read-outs stand apart in the source and are kept apart here.

For `C[C@@H]1CC[C@H]2[C@@H](C)C(=O)O[C@@H]3O[C@@]4(C)CC[C@@H]1[C@]32OO4` [artemisinin], the “metabolic activity (MTT test)” value in the series with parental HEK293 cells (100 µM) was “slight and statistically significant reduction of metabolic activity”; in the series on parental HEK293 cells (concentrations up to 50 µM), “did not reduce the metabolic activity”. Further, the “[Ca2+]i reached after stimulation” value with mouse TRPC3 ortholog was 1140 ± 635 nM. The “ionic currents in TRPC7-expressing HEK cells” value in the series on TRPC7 is “only weakly enhanced”. Also, the “Hill coefficient, outward currents” value on TRPC3 (+100 mV) is recorded as 2.2. Further, the pEC50 on TRPC3 (+100 mV, read-out: EC50 to activate TRPC3 outward currents) is 4.48; on TRPC3 (−100 mV, read-out: EC50 to activate TRPC3 inward currents) it was 4.60. Also, the “Hill coefficient, inward currents” value on TRPC3 (−100 mV) was 2.4.

The pEC50 is the negative decadic logarithm of the EC50, by convention in mol/L.
